This note sets out measurements from ChEMBL document CHEMBL1147995, “In-vitro investigation of oxazol and urea analogues of morphinan at opioid receptors” (Bioorg Med Chem, 2007).

The target in test [1] is T1, Kappa-type opioid receptor (Homo sapiens, UniProt P41145). Briefly: Displacement of [3H]U69,593 from human kappa opioid receptor expressed in CHO membrane. It counts as cell membranes. For orientation: In a radioligand displacement assay an active substance lowers the binding of a labelled ligand.
T1 sequence (P41145 whole entry): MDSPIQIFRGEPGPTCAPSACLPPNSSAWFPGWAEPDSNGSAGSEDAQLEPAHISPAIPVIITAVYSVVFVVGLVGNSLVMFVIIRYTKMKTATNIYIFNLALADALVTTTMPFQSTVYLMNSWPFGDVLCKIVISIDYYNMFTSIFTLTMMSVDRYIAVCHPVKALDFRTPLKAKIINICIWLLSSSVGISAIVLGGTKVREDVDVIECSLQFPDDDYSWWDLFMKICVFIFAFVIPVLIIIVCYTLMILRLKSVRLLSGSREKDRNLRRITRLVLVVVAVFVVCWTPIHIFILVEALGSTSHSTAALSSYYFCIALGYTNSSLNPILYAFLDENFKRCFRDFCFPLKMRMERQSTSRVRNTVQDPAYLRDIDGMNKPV
The nature of test [2]: Displacement of [3H]naltrindole from human delta opioid receptor expressed in CHO membrane.
The target in test [3] is T2, Mu-type opioid receptor (Homo sapiens, UniProt P35372). The experiment in a line: Displacement of [3H]DAMGO from human mu opioid receptor expressed in CHO membrane. In kind it is cell membranes.
T2 sequence (P35372 whole entry): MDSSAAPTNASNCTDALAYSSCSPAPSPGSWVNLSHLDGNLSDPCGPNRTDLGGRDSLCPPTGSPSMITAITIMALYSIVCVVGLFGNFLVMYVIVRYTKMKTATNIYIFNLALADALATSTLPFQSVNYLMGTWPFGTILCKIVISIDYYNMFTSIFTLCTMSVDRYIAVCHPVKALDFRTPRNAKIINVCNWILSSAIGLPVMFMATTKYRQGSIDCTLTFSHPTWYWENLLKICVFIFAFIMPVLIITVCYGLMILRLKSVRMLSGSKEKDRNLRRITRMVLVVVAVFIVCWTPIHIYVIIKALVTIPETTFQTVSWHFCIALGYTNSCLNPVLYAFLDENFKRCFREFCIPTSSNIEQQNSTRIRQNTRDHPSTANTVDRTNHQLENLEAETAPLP
In test [4] the target is T2, Mu-type opioid receptor. The experiment in a line: Antagonist activity at human mu opioid receptor expressed in CHO cells assessed as inhibition of DAMGO-induced [35S]GTPgammaS binding after 60 mins. It counts as functional, cell-based. For orientation: GTPγS resists hydrolysis and so accumulates on activated G proteins.
The target in test [5] is T1, Kappa-type opioid receptor. Briefly: Agonist activity at human kappa opioid receptor expressed in CHO cells assessed as stimulation of [35S]GTP-gamma-S binding after 60 mins. In kind it is functional, cell-based.
Test [6] concerns the target T3, Delta-type opioid receptor (Homo sapiens, UniProt P41143). The experiment in a line: Displacement of [3H]naltrindole from human delta opioid receptor expressed in CHO membrane. In kind it is cell membranes.
In test [7] the target is T2, Mu-type opioid receptor. Briefly: Agonist activity at human mu opioid receptor expressed in CHO cells assessed as stimulation of [35S]GTP-gamma-S binding relative to basal level after 60 mins. It counts as functional, cell-based.
Test [8] concerns the target T1, Kappa-type opioid receptor. Briefly: Agonist activity at human kappa opioid receptor expressed in CHO cells assessed as stimulation of [35S]GTP-gamma-S binding relative to basal level after 60 mins. It counts as functional, cell-based.
In test [9] the target is T2, Mu-type opioid receptor. Briefly: Agonist activity at human mu opioid receptor expressed in CHO cells assessed as stimulation of [35S]GTP-gamma-S binding after 60 mins. It counts as functional, cell-based.
Test [10] has as its target T3, Delta-type opioid receptor. The experiment in a line: Displacement of [3H]naltrindole from human delta opioid receptor expressed in CHO membrane at 10 uM. It counts as cell membranes.

T3 sequence (P41143 whole entry): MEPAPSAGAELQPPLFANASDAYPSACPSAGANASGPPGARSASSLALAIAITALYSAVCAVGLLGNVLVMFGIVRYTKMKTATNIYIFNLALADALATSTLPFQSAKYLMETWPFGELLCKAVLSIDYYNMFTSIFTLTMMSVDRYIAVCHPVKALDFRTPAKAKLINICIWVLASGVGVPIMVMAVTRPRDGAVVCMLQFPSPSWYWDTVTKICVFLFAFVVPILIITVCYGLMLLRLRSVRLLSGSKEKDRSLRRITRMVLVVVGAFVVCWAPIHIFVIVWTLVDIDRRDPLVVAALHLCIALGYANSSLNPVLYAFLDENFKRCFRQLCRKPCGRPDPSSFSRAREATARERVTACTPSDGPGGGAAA

Turning to `Nc1ccc2c(c1)[C@@]13CCCC[C@H]1[C@@H](C2)N(CC1CC1)CC3`, the Ki (commonly the equilibrium dissociation constant of an inhibitor or competing ligand from its target) in [1] stood at 0.18 nM; in test [2] it was 150 nM; at Mu-type opioid receptor [3] it was 1.3 nM.
On to `NC(=O)Nc1ccc2c(c1)[C@@]13CCCC[C@H]1[C@@H](C2)N(CC1CCC1)CC3`, for which, at Mu-type opioid receptor [4], the IC50 – broadly, the midpoint of a concentration-inhibition curve – was found to be 1500 nM. Besides, the Imax at Mu-type opioid receptor [4] stood at 35%. In addition, the results for the inhibitory constant (Ki) (in test [1]; in test [6]; on Mu-type opioid receptor [3]) were 8.9 nM, 160 nM and 3.2 nM, respectively. Also, the figures for the EC50 (in test [5]; on Mu-type opioid receptor [9]) were 87 nM and 63 nM, respectively. In addition, the Emax (as a rule, the greatest response seen or fitted, relative to the assay's reference) on Mu-type opioid receptor [7] was 33%; in [8], 64%.
For the compound `Nc1nc2cc3c(cc2o1)[C@@]12CCCC[C@H]1[C@@H](C3)N(CC1CCC1)CC2`, the values for the Ki (in test [1]; on Mu-type opioid receptor [3]) were 6.6 nM and 40 nM, respectively. Also, the inhibition – broadly, how much of the control response was suppressed – in test [10] was determined as 46%.
In the same order, the values of `Nc1nc2cc3c(cc2o1)[C@@]12CCCC[C@H]1[C@@H](C3)N(CC1CC1)CC2` are 52 nM, 150 nM and 18%.
For the compound `NC(=O)Nc1ccc2c(c1)[C@@]13CCCC[C@H]1[C@@H](C2)N(CC1CC1)CC3`, the IC50 on Mu-type opioid receptor [4] turned out to be 380 nM. At Mu-type opioid receptor [4], the Imax amounted to 52%. For the same compound, the figures for the Ki (in test [1]; in [6]; at Mu-type opioid receptor [3]) were 0.61 nM, 23 nM and 1.4 nM, respectively. Also, the EC50 (commonly the midpoint of the concentration-response curve) in test [5] stood at 33 nM; on Mu-type opioid receptor [9], 31 nM. For the same compound, the Emax worked out at 21% at Mu-type opioid receptor [7] and 84% in test [8].
In the case of `CNC(=O)Nc1ccc2c(c1)[C@@]13CCCC[C@H]1[C@@H](C2)N(CC1CC1)CC3`, the values for the Ki (in test [1]; in test [6]; at Mu-type opioid receptor [3]) were 2.3 nM, 50 nM and 12 nM, respectively. The EC50 in test [5] was found to be 8.4 nM. In addition, the Emax in test [8] came out at 67%.
Consider `O=c1[nH]c2cc3c(cc2o1)[C@@]12CCCC[C@H]1[C@@H](C3)N(CC1CC1)CC2`, for which the results for the Ki (in test [1]; at Mu-type opioid receptor [3]) were 47 nM and 160 nM, respectively. In [10], this compound came in with an inhibition of 44%.
As for `O=c1[nH]c2cc3c(cc2o1)[C@@]12CCCC[C@H]1[C@@H](C3)N(CC1CCC1)CC2`, the Ki in test [1] was found to be 1.9 nM; in test [6], 360 nM; at Mu-type opioid receptor [3] it was 5.8 nM.
As for `CNC(=O)Nc1ccc2c(c1)[C@@]13CCCC[C@H]1[C@@H](C2)N(CC1CCC1)CC3`, the Ki in [1] amounted to 20 nM; in test [6], 270 nM; at Mu-type opioid receptor [3], 22 nM.
As to `Nc1ccc2c(c1)[C@@]13CCCC[C@H]1[C@@H](C2)N(CC1CCC1)CC3`, the Ki in test [2] was determined as 180 nM.
